Experiments:
[1] = test system: HEp2 cells; test: Estimation of growth and viability of uninfected HEp2 cells (trypan blue counting); assay type: cell-based
Method: Uninfected HEp2 cells were grown in the absence (control) and the presence of 10 to 500 μM of MGBG for 24 h, 30 h and 48 h. Every 24 h, medium was replaced with fresh medium containing the same concentration of MGBG. At the time of harvesting, culture medium was collected from wells of untreated control cells and treated cells. Then cells from the monolayers were gently trypsinized and added to the corresponding previous cell culture medium. Total cells were collected by gentle centrifugation at 500×g and were resuspended in PBS containing 0.2% trypan blue. For each experiment, total cells, living cells and dead cells were counted.
The effect of MGBG on cell growth and viability was investigated. HEp2 cells were incubated in FCS free medium, in the presence of 10 μM to 500 μM of MGBG for 24 h, 30 h and 48 h. After harvesting, total cells, living cells and dead cells were counted.

[2] = test system: acyclovir-resistant reference strain DM21; test: Antiviral susceptibility testing by ELISA on HEp-2 cells, strain DM21; assay type: cell-based, HSV 1; details: HEp-2 cells, ELISA; median of at least three assays; drugs diluted in μM; read-out: Susceptibility of strain DM21 (concentration causing 50% inhibition of viral replication, IC50), median
Method: (§1) Three HSV 1 reference strains were tested : SC16 (acyclovir-susceptible reference strain; (Hill et al., 1975)), DM21 (acyclovir-resistant reference strain derived from SC16; (Efstathiou et al., 1989)) and TP 2.5 (foscarnet-resistant reference strain derived from SC16; (Larder and Darby, 1985)). Antiviral assays were performed in duplicate on HEp-2 cells seeded in 96 wells microplates. Dilutions of virus and drugs were prepared in E-MEM without FCS. Cells were first treated for 24 hours with MGBG using a series of 6 twofold serial dilutions from 12.5 to 400 μM. Infection was then achieved with 5 tenfold dilutions of cell-associated virus (10^−1 to 10^−5). Each dilution was incubated with a series of 6 concentrations of each antiviral drug (from 12.5 to 400 μM in twofold dilutions for MGBG, from 0.16 to 500 μM in fivefold dilutions for acyclovir and from 31 to 1000 μM in twofold dilutions for foscarnet). […] After incubation at 36° C. with 5% CO2 for 24 hours post-infection, medium was replaced with freshly prepared dilutions of MGBG. Viral multiplication was checked 24 hours afterwards by an ELISA (Morfin et al., 1999), using a rabbit monoclonal anti-HSV 1 antibody (BO 114, Dako) and a protein A peroxidase-conjugated (BioRad). The substrate, 2,2′-azino-di(3-ethyl-benzthiazoline) sulfonic acid (ABTS) diluted in ABTS buffer (Boehringer, Mannheim), was added to each well. After 30 min at room temperature, the plates were briefly agitated and optical densities were read at 405 nm with a multichannel spectrophotomoter (Titertek-Multiskan). Optical density values were used with the Biolise program (Life Sciences International) to calculate the concentration of the drug causing a 50% inhibition of viral replication (IC50) by logistic regression analysis.
The capacity of MGBG to preclude infection of three HSV-1 acyclovir and/or foscarnet resistant strains was tested. The reference strains used in this study were the SC16 acyclovir-susceptible reference strain, the DM21 acyclovir-resistant reference strain derived from SC16 and the TP 2.5 foscarnet-resistant reference strain derived from SC16 (Efstathiou et al., 1989; Hill et al., 1975; Larder and Darby, 1985). In each experiment, dose response curves were constructed for […], for acyclovir, and for MGBG. The ED values were determined.

[3] = test system: HSV; test: HSV replication in cellulo; assay type: cell-based; details: read-out: HSV inhibition in cellulo IC50
Method: as §1

[4] = test system: HSV-1 clinical acyclovir or foscarnet resistant isolates
[5] = test system: HSV; details: McCormick and Newton, 1975; Tyms et al., 1979; cited from earlier work

CC(C=NNC(=N)N)=NNC(=N)N [MGBG, methylglyoxal bis(guanylhydrazone)]
percentage of dead cells of total cells ([1]; 25 μM MGBG, 48 h): 10% | percentage of dead cells of total cells ([1]; 500 μM MGBG, 24 h): 9% | percentage of dead cells of total cells ([1]; 500 μM MGBG, 30 h): 24% | cell growth ([1]; 500 μM MGBG, FCS free): did not grow anymore | growth rate of cells compared to control cells grown without MGBG ([1]; 24 h and 30 h, less than 200 μM MGBG, FCS free): no drastic difference | percentage of dead cells of total cells ([1]; less than 500 μM MGBG for 24 h and 30 h, less than 25 μM MGBG for 48 h): ≤ 5% | IC50 [2]: 75 µM | IC50 [3]: 44 µM | replication of HSV-1 clinical acyclovir or foscarnet resistant isolates [4]: inhibited replication | effect on HSV replication [5]: no effect

Reference: patent publication US20070059299A1, “S-adenosyl methionine decarboxylase inhibition for the treatment of a herpes simplex virus infection” (Institut National de la Sante et de la Recherche Medicale …, priority 2002, published 2007)
